One test concerns the target T1, Human recombinant PDE4B2 (Homo sapiens, UniProt Q07343).
T1 construct: purchased BPS Bioscience
The test is described as follows: Inhibition of PDE4B4 enzyme activity (PDE Glo Assay). Format: biochemical. To be noted: human recombinant PDE4B2, 50 nM cAMP; read-out: PDE4 IC50. The protocol: Biological Examples Inhibition of PDE4B4 Enzyme Activity
The inhibitory activity of test compounds were determined using the PDE Glo Assay (Promega, V1361). The PDE-Glo Reaction Buffer was prepared (1 mL 5× buffer+4 mL water) and 150 nM solution of test compound dissolved in the Reaction Buffer, followed by 1:3 serial dilutions into Reaction Buffer. […] Human recombinant PDE4B2 (BPS Bioscience) was added to test compound in Reaction Buffer at a concentration of 0.12 nM per reaction. The enzyme and test compound were pre-incubated together at rt for 10 min. 50 nM of the enzyme substrate cAMP was then added to initiate the enzyme reaction, with the reaction terminated after one hour. Termination Buffer (1 mL 5× termination buffer+3.9 mL water+100 μL of 100 mM IBMX (ICN Chemicals, in DMSO)), was added to each reaction well to terminate the reaction. Detection Buffer (1 mL 5×PDE-Glo Detection buffer+3.96 mL water+40 μL PKA (supplied in kit)) was added to the cAMP-enzyme-test compound mix and this secondary reaction proceeded for 20 minutes at rt. An equal volume of Kinase Glo Reagent was then added to the reaction mixture and after 10 min luminescence was measured using a luminometer (EnVision, 0.1 sec read for luminescence). Luminescence values were […] related to levels of cAMP in the reaction mixture. Data were plotted as relative light units (RLU) versus test compound concentration and the IC50 determined using GraphPad Prism 5.0, using a nonlinear curve fit in a single-site binding model.
IC50 determinations for the compounds presented above are seen in the first column of Table 1 (PDE4IC50).

The target of test [1] is T2, human recombinant beta-2 adrenoreceptors (Homo sapiens, UniProt P07550).
T2 construct: expressed in transfected cells; host or cells: CHO cells
Description: Functional agonism of human recombinant beta-2 adrenoreceptors expressed in CHO cells (cAMP HTRF). Format: cell-based. To be noted: CHO cells expressing human beta-2 adrenoreceptors, cAMP elevation, 30 min. As to the method:
Functional Agonism of Human Recombinant Beta-2 Adrenoreceptors Expressed in Chinese Hamster Oocytes (CHO)
Test compounds were incubated for 30 min with CHO cells expressing the human recombinant beta-2 adrenoreceptors. Agonism of the receptor was measured by the elevation of intracellular cyclic-AMP over control levels detected using a homogeneous time resolved fluorescence (HTRF) format. Compounds were determined to be “full” or “partial” agonists based on the maximum level of cAMP accumulated compared to the control compound isoproterenol which is a full agonist in this assay system. Concentration response curves were generated for test compounds and the EC50 (molar concentration of the agonist which produced 50% of the maximal response for that compound) was determined. These assays were performed using a protocol based on the original description of the assay by Baker, J. G. (2005) Brit. J. Pharmacol.; 144:317-322.
EC50 determinations for the compounds presented above are seen in the third column of Table 1 (Beta 2 EC50).
In general terms: Time-resolved FRET reads energy transfer from a long-lived donor to a nearby acceptor.

The subject of test [2] is LPS-induced TNF-α release from human peripheral blood mononuclear cells (PBMC). Description: Inhibition of LPS-induced TNF-α release from human PBMC. Format: cell-based. To be noted: LPS 0.4 ng/mL, 6 h, presence or absence of ICI-118551 not given. The text has this:
Inhibition of Lipopolysaccharide (LPS)-Induced Tumour Necrosis Factor Alpha (TNF-α) Release from Human Peripheral Blood Mononuclear Cells (PBMC)
Human whole blood was drawn from donors and cell purification initiated within two hours. Peripheral blood mononuclear cells (PBMC) were purified using a standard Ficoll gradient purification technique and aliquoted at a concentration of 100,000 cells/well in 96 well plates. Beta-2 adrenoreceptor agonists are also anti-inflammatory for some immune cells expressing the receptor and in this assay they can inhibit tumor necrosis factor-alpha (TNF-α) production. Therefore PBMC were pre-incubated for 30 min in the presence of the beta-2 adrenoreceptor antagonist ICI-118551 [3-(isopropylamino)-1-[(7-methyl-4-indanyl)oxy]butan-2-ol] (10 μM) to determine the PDE4 directed activity of test compounds, and in the absence of ICI-118551 for the combined PDE4 and beta-2 receptor directed activity. Test compounds were dissolved in DMSO and diluted in buffer (final DMSO concentration of 0.1% v/v) and were then added to the cell suspensions and pre-incubated for a further 1 h at 37° C. LPS solution was then added (0.4 ng/mL) and the cells incubated for a further 6 h. At the end of the incubation period the cell supernatants were collected and TNF-α was measured using a Procarta Cytokine Assay Kit (Affymetrix, Santa Clara, Calif.) according to the manufacturers' instructions. Data were analyzed using MiraiBio Masterplex QT v4.0 software (MasterPlex Version 1.0.1.18 Copyright 2008, Hitachi Software Engineering Co., Ltd) and used to extrapolate Mean Fluorescence Intensity (MFI) into concentrations of TNF-α and mean values from replicate wells were determined. Inhibition curves were plotted using a nonlinear curve fit employing a single-site binding model to determine the IC50 value for each test compound in the presence or absence of ICI-118551 using GraphPad Prism 5 for Windows, version 5.02 (GraphPad Software, San Diego Calif.).
EC50 determinations for the compounds presented above are seen in the fourth column of Table 1 (PBMC TNF EC50).

Test [3] has as its target T2, human recombinant beta-2 adrenoreceptors. Description: Beta-2 adrenoceptor binding assay ([3H](−)CGP-12177 displacement). To be noted: CHO cells expressing human beta-2 adrenoreceptors, [3H](−)CGP-12177 0.3 nM, 120 min. The protocol:
Beta-2 Adrenoceptor Binding Assay
Test compounds were incubated for 120 min with Chinese hamster oocyte (CHO) cells expressing the human recombinant beta-2 adrenoreceptors. Binding of test compounds to the beta-2 adrenoreceptors was determined by measuring the displacement of the radiolabeled ligand [^3H](−)CGP-12177 (0.3 nM) from the receptor measured by a scintillation counting. Concentration response curves were generated for test compounds and the IC50 (molar concentration of the compound which produced 50% inhibition for the maximal response for that compound) was determined. These assays were performed using a protocol based on the original description of the assay by Joseph et al., (2004) Naun.-Sch. Arch. Pharm.; 369:525-532.
IC50 determinations for the compounds presented above are seen in the second column of Table 1 (Beta 2 IC50).

A word on the IC50: it is the midpoint of a concentration-inhibition curve. Usually EC50 stands for the concentration that produces a half-maximal response.

T2 sequence (P07550 whole entry): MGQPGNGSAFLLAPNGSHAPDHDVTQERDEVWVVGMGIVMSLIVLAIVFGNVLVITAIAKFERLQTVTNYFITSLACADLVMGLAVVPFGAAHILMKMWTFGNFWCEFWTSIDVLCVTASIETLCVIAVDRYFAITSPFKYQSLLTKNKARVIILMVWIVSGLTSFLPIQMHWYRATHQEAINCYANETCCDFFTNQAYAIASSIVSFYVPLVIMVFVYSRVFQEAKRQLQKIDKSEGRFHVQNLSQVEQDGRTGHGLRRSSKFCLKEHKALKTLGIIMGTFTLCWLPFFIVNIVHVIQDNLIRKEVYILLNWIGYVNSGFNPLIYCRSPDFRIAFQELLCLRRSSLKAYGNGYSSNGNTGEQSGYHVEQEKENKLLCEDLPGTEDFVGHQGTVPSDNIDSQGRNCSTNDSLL
T1 sequence (Q07343 1-564 isoform Q07343-2): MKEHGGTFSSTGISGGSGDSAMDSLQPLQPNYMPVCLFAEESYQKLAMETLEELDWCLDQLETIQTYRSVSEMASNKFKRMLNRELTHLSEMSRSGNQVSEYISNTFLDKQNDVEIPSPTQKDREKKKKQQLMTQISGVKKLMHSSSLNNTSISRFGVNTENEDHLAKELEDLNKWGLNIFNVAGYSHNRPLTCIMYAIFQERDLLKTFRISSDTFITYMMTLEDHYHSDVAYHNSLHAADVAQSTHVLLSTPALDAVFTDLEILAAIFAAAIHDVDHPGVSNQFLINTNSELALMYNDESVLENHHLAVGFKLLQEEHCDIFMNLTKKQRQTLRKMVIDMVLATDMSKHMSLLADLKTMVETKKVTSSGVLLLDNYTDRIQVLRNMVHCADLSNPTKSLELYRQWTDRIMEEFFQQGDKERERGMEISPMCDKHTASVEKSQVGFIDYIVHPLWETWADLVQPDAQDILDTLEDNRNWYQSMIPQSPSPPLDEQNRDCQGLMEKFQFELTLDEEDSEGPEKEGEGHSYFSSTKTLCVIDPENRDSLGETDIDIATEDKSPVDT

For `COc1cccc(Nc2c(C(N)=O)cnc3c(C)cc(S(=O)(=O)c4cccc(C(=O)Nc5ccc(C6(CCCCNC[C@H](O)c7ccc(O)c8[nH]c(=O)ccc78)SCCS6)cc5)c4)cc23)c1` [Example 37, (R)-6-((3-((4-(2-(4-((2-hydroxy-2-(8-hydroxy-2-oxo-1,2-dihydroquinolin-5-yl)ethyl)amino)butyl)-1,3-dithiolan-2-yl)phenyl)carbamoyl)phenyl)sulfonyl)-4-((3-methoxyphenyl)amino)-8-methylquinoline-3-carboxamide], the IC50 (on Human recombinant PDE4B2; in test [3]) was < 100 nM each time. The EC50 in test [1] and in test [2] was < 100 nM each time.

With `COc1cccc(Nc2c(C(N)=O)cnc3c(C)cc(S(=O)(=O)c4cccc(C(=O)N(C)CCCCCCNC[C@H](O)c5ccc(O)c(CO)c5)c4)cc23)c1` [Example 44, (R)-6-[[3-[[6-[[2-Hydroxy-2-(4-hydroxy-3-(hydroxymethyl]phenyl]ethyl]amino)hexyl](methyl)carbamoyl]phenyl]sulfonyl]-4-[(3-methoxyphenyl)amino]-8-methylquinoline-3-carboxamide], the IC50 was < 100 nM on Human recombinant PDE4B2 and > 300 nM in test [3]. For the same molecule, the EC50 in test [1] was > 300 nM; in test [2] it was < 100 nM.

For the molecule `COc1cccc(Nc2c(C(N)=O)cnc3c(C)cc(S(=O)(=O)c4cccc(C(=O)N5CCC(OCCCCCCNC[C@H](O)c6ccc(O)c7[nH]c(=O)ccc67)CC5)c4)cc23)c1` [Example 15, (R)-6-((3-(4-((6-((2-hydroxy-2-(8-hydroxy-2-oxo-1,2-dihydroquinolin-5-yl)ethyl)amino)hexyl)oxy)piperidine-1-carbonyl)phenyl)sulfonyl)-4-((3-methoxyphenyl)amino)-8-methylquinoline-3-carboxamide], the IC50 (at Human recombinant PDE4B2; in test [3]) was < 100 nM in each case. For the same molecule, the EC50 in test [1] and in test [2] was < 100 nM in each case.

Consider `COc1cccc(Nc2c(C(N)=O)cnc3c(C)cc(S(=O)(=O)c4cccc(C(=O)N5CCN(C(=O)c6cccc(CC(C)NC[C@H](O)c7ccc(O)c8[nH]c(=O)ccc78)c6)CC5)c4)cc23)c1` (stereo partly drawn) [Example 17, 6-((3-(4-(3-(2-(((R)-2-hydroxy-2-(8-hydroxy-2-oxo-1,2-dihydroquinolin-5-yl)ethyl)amino)propyl)benzoyl)piperazine-1-carbonyl)phenyl)sulfonyl)-4-((3-methoxyphenyl)amino)-8-methylquinoline-3-carboxamide], for which the IC50 (at Human recombinant PDE4B2; in test [3]) was < 100 nM in each case. Further, the EC50 in test [1] and in test [2] was < 100 nM throughout.

For the molecule `COc1cccc(Nc2c(C(N)=O)cnc3c(C)cc(S(=O)(=O)CCCCCCCCCCCNC[C@H](O)c4cc(O)cc5c4OCC(=O)N5)cc23)c1` [Example 46, (R)-6-((11-((2-hydroxy-2-(6-hydroxy-3-oxo-3,4-dihydro-2H-benzo[b][1,4]oxazin-8-yl)ethyl)amino)undecyl)sulfonyl)-4-((3-methoxyphenyl)amino)-8-methylquinoline-3-carboxamide], the IC50 (at Human recombinant PDE4B2; in test [3]) was < 100 nM each time. In addition, the values for the EC50 in test [1] and in test [2] were < 300 nM and < 100 nM, respectively.

Take `COc1cccc(Nc2c(C(N)=O)cnc3c(C)cc(S(=O)(=O)c4cccc(C(=O)N(C)CCCCCCNC[C@H](O)c5ccc(O)c6[nH]c(=O)ccc56)c4)cc23)c1` [Example 14]: the IC50 at Human recombinant PDE4B2 was < 100 nM; in test [3], > 300 nM. Moreover, the EC50 in test [1] is > 300 nM; in test [2], < 100 nM.

In the case of `COc1cccc(Nc2c(C(N)=O)cnc3c(C)cc(S(=O)(=O)c4cccc(C(=O)Nc5ccc(-c6ccc(CNC[C@H](O)c7ccc(O)c8[nH]c(=O)ccc78)cc6)cc5)c4)cc23)c1` [Example 20, (R)-6-((3-((4′-(((2-hydroxy-2-(8-hydroxy-2-oxo-1,2-dihydroquinolin-5-yl)ethyl)amino)methyl)-[1,1′-biphenyl]-4-yl)carbamoyl)phenyl)sulfonyl)-4-((3-methoxyphenyl)amino)-8-methylquinoline-3-carboxamide], the IC50 (at Human recombinant PDE4B2; in test [3]) was < 100 nM in each case. Further, the EC50 in test [1] and in test [2] was < 100 nM throughout.

For the molecule `COc1cccc(Nc2c(C(N)=O)cnc3c(C)cc(S(=O)(=O)c4cccc(CN(C)C(=O)c5cccc(CC(C)(C)NC[C@H](O)c6ccc(O)c7[nH]c(=O)ccc67)c5)c4)cc23)c1` [Example 19, (R)-6-((3-((3-(2-((2-hydroxy-2-(8-hydroxy-2-oxo-1,2-dihydroquinolin-5-yl)ethyl)amino)-2-methylpropyl)-N-methylbenzamido)methyl)phenyl)sulfonyl)-4-((3-methoxyphenyl)amino)-8-methylquinoline-3-carboxamide], the IC50 (on Human recombinant PDE4B2; in test [3]) was < 100 nM each time. Besides, the EC50 in test [1] and in test [2] was < 100 nM each time.

As for `COc1cccc(Nc2c(C(N)=O)cnc3c(C)cc(S(=O)(=O)c4cccc(C(=O)Nc5ccc(CCNC[C@H](O)c6ccc(O)c7[nH]c(=O)ccc67)cc5)c4)cc23)c1` [Example 12, (R)-6-[[3-[[4-[2-[[2-Hydroxy-2-(8-hydroxy-2-oxo-1,2-dihydroquinolin-5-yl)ethyl]amino]ethyl]phenyl]carbamoyl]phenyl]sulfonyl]-4-[(3-methoxyphenyl)amino]-8-methylquinoline-3-carboxamide], the IC50 (on Human recombinant PDE4B2; in test [3]) was < 100 nM throughout. Besides, the EC50 in test [1] and in test [2] was < 100 nM throughout.

With `COc1cccc(Nc2c(C(N)=O)cnc3c(C)cc(S(=O)(=O)c4cccc(C(=O)Nc5ccc(CCCCCNC[C@H](O)c6ccc(O)c7[nH]c(=O)ccc67)cc5)c4)cc23)c1` [Example 10, (R)-6-[[3-[[4-[5-[[2-Hydroxy-2-(8-hydroxy-2-oxo-1,2-dihydroquinolin-5-yl)ethyl]amino]pentyl]phenyl]carbamoyl]phenyl]sulfonyl]-4-[(3-methoxyphenyl)amino]-8-methylquinoline-3-carboxamide 2,2,2-trifluoroacetate], the IC50 (on Human recombinant PDE4B2; in test [3]) was < 100 nM in each case. Besides, the EC50 in test [1] and in test [2] was < 100 nM throughout.

The record behind these values is US8394829B2, “Bi-functional quinoline analogs” (Gilead Sciences, Inc., priority 2010, dated 2013).
